Test results published in patent US20130217702A1 (Richter Gedeon Nyrt., priority 2010, published 2013).

Assays:
[1] = biological target: T1, recombinant human B1 receptors (Homo sapiens, UniProt P46663); test: Functional assay: antagonist potency by cytosolic calcium measurement (plate reader fluorimeter) in CHO-B1 cells, agonist LysDABK; assay type: cell-based; conditions: CHO-B1 cells, inhibition of LysDABK (EC80)-evoked [Ca2+]i elevation; read-out: B1 func.
T1 construct: host or cells: CHO (CHO-B1)
T1 sequence (P46663 1-353): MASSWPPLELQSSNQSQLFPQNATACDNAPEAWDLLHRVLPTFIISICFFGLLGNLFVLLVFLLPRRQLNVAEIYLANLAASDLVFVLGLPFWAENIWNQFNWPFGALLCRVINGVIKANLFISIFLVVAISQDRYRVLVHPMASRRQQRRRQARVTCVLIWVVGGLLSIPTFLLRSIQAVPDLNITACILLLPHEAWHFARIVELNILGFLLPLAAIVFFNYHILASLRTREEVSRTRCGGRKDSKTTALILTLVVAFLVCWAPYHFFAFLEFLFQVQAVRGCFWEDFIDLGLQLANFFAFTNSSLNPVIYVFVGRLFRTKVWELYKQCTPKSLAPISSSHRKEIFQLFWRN
Method in brief: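 IC50 is the concentration giving half-maximal inhibition of the LysDABK (EC80) calcium response, fitted from at least three experiments. CHO cells stably expressing human B1 were dye-loaded, exposed to compound for 20-25 min, then read by fluo-4 fluorescence (ΔF/F) at 37 °C.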

[2] = biological target: T2, human recombinant bradykinin B1 receptor (Homo sapiens, UniProt P46663); test: Human recombinant bradykinin B1 receptor competitive radioligand binding; conditions: hB1 expressed in CHO cells, [3H]-[Des-Arg10] Kallidin radioligand; read-out: B1 binding
T2 construct: host or cells: CHO cells, clone hB1-A5
T2 sequence (P46663 1-353): T1 sequence (P46663 1-353)
Method in brief: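 Competition radioligand binding on CHO-expressed hB1 membranes, using [3,4-prolyl-3,4-^3H(N)]-[Des-Arg^10] Kallidin as tracer, 15 min at 25° C. Excess Lys-des-Arg^9-Bradykinin (10 μM) set nonspecific binding. Sigmoidal fits of at least seven concentrations gave IC50, converted to Ki via Cheng-Prusoff; KD from Scatchard.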

In the case of `Cc1nc(-c2c(Cl)c3ccccc3n2-c2ccc(CNC(=O)C3(NC(=O)c4cc(C(F)(F)F)ccc4F)CC3)cc2)no1` [Example 96, N-(1-{4-[3-Chloro-2-(5-methyl-[1,2,4]oxadiazol-3-yl)-indol-1-yl]-benzylcarbamoyl}-cyclopropyl)-2-fluoro-5-trifluoromethyl-benzamide], the IC50 [1] is reported as less than 0.02 µM and the Ki [2] is reported as less than 0.02 µM.

`NC(=O)c1c(Cl)c2ccccc2n1-c1ccc(CNC(=O)C2(NC(=O)C(F)(F)F)CC2)cc1` [Example 187, 3-Chloro-1-[4-({[1-(2,2,2-trifluoro-acetylamino)-cyclopropanecarbonyl]-amino}-methyl)-phenyl]-1H-indole-2-carboxylic acid amide] was tested, and the IC50 [1] was 0.02 to 0.1 µM and the Ki [2] was 0.1 to 0.5 µM.

Work on `COC(=O)c1c(Cl)c2ccccc2n1-c1ccc(CNC(=O)C2(NC(=O)C(F)(F)F)CC2)cc1` [Example 10, 3-Chloro-1-[4-({[1-(2,2,2-trifluoro-acetylamino)-cyclopropanecarbonyl]-amino}-methyl)-phenyl]-1H-indole-2-carboxylic acid methyl ester] yielded an IC50 [1] of less than 0.02 µM and a Ki [2] of less than 0.02 µM.

In the case of `Cc1nc(-c2c(Cl)c3ccccc3n2-c2ccc(CNC(=O)C3(NC(=O)c4ccc(F)nc4)CC3)cc2)no1` [Example 99, N-(1-{4-[3-Chloro-2-(5-methyl-[1,2,4]oxadiazol-3-yl)-indol-1-yl]-benzylcarbamoyl}-cyclopropyl)-6-fluoro-nicotinamide], the IC50 [1] is reported as less than 0.02 µM and the Ki [2] is reported as less than 0.02 µM.

Work on `COc1cc(C(=O)NC2(C(=O)NCc3ccc(-n4c(-c5nnc(C)o5)c(Cl)c5cc(F)ccc54)cc3)CC2)on1` [Example 37, 3-Methoxy-isoxazole-5-carboxylic acid (1-{4-[3-chloro-5-fluoro-2-(5-methyl-[1,3,4]oxadiazol-2-yl)-indol-1-yl]-benzylcarbamoyl}-cyclopropyl)-amide] yielded an IC50 [1] of less than 0.02 µM and a Ki [2] of less than 0.02 µM.

`Cc1nc(-c2c(Cl)c3ccccc3n2-c2ccc(CNC(=O)C3(NC(=O)c4cnn(C)c4)CC3)cc2)no1` [Example 121, 1-Methyl-1H-pyrazole-4-carboxylic acid (1-{4-[3-chloro-2-(5-methyl-[1,2,4]oxadiazol-3-yl)-indol-1-yl]-benzylcarbamoyl}-cyclopropyl)-amide] showed an IC50 [1] of 0.02 to 0.1 µM and a Ki [2] of less than 0.02 µM.

`Cc1cc(C(=O)NC2(C(=O)NCc3ccc(-n4c(-c5noc(C)n5)c(Cl)c5ccccc54)cc3F)CC2)no1` [Example 107, 5-Methyl-isoxazole-3-carboxylic acid (1-{4-[3-chloro-2-(5-methyl-[1,2,4]oxadiazol-3-yl)-indol-1-yl]-2-fluoro-benzylcarbamoyl}-cyclopropyl)-amide] showed an IC50 [1] of less than 0.02 µM and a Ki [2] of less than 0.02 µM.

With `Cc1noc(-c2cc3cc(F)ccc3n2-c2ccc(CNC(=O)C3(NC(=O)CC(F)(F)F)CC3)cc2)n1` [Example 101, 1-(3,3,3-Trifluoro-propionylamino)-cyclopropanecarboxylic acid 4-[5-fluoro-2-(3-methyl-[1,2,4]oxadiazol-5-yl)-indol-1-yl]-benzylamide] the IC50 [1] was less than 0.02 µM and the Ki [2] was less than 0.02 µM.

For `Cc1nc(-c2cc3cc(F)ccc3n2-c2ccc(CNC(=O)C3(NC(=O)c4cncc(C(F)(F)F)c4)CC3)cc2)no1` [Example 46, N-(1-{4-[5-Fluoro-2-(5-methyl-[1,2,4]oxadiazol-3-yl)-indol-1-yl]-benzylcarbamoyl}-cyclopropyl)-5-trifluoromethyl-nicotinamide], the IC50 [1] was less than 0.02 µM and the Ki [2] was less than 0.02 µM.

With `Cc1nc(-c2cc3cc(Cl)ccc3n2-c2ccc(CNC(=O)C3(NC(=O)c4cncc(C(F)(F)F)c4)CC3)cc2)no1` [Example 128, N-(1-{4-[5-Chloro-2-(5-methyl-[1,2,4]oxadiazol-3-yl)-indol-1-yl]-benzylcarbamoyl}-cyclopropyl)-5-trifluoromethyl-nicotinamide] the IC50 [1] was less than 0.02 µM and the Ki [2] was less than 0.02 µM.
